Laboratory results: the supplement of paper PMC10307832

How the values were obtained:
Experiment in all cases: relative viability (nuclei count vs DMSO), 5 days (fraction); higher = more cells survive
HCC-78 = test system: HCC-78
In short: (§1)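 Relative viability equals treated-well nuclei counts divided by vehicle-well nuclei counts. Counts came from 4× images of lung cancer cell lines grown in 1536-well plates for 5 days after pin-tool dosing on the day after seeding. Dosing used one drug alone or a fixed anchor-drug dose plus five library-drug doses (not always all listed) in √10 steps, and values are medians of duplicate plates.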

NCI-H1666 = test system: NCI-H1666
In short: as §1

NCI-H1915 = test system: NCI-H1915
In short: as §1

NCI-H2085 = test system: NCI-H2085
In short: as §1

HOP-62 = test system: HOP-62
In short: as §1

ABC-1 = test system: ABC-1
In short: as §1

UMC-11 = test system: UMC-11
In short: as §1

COR-L 105 = test system: COR-L 105
In short: as §1

EPLC-272H = test system: EPLC-272H
In short: as §1

NCI-H322M = test system: NCI-H322M
In short: as §1

NCI-H358 = test system: NCI-H358
In short: as §1

HCC-15 = test system: HCC-15
In short: as §1

NCI-H3122 = test system: NCI-H3122
In short: as §1

LXF-289 = test system: LXF-289
In short: as §1

CAL-12T = test system: CAL-12T
In short: as §1

NCI-H1975 = test system: NCI-H1975
In short: as §1

NCI-H2126 = test system: NCI-H2126
In short: as §1

NCI-H2023 = test system: NCI-H2023
In short: as §1

NCI-H1755 = test system: NCI-H1755
In short: as §1

EMC-BAC-2 = test system: EMC-BAC-2
In short: as §1

NCI-H441 = test system: NCI-H441
In short: as §1

`Nc1ccn([C@@H]2O[C@H](CO)[C@@H](O)[C@@H]2O)c(=O)n1` [Cytarabine] + Cc1nc(NC(=O)N2CCC[C@H]2C(N)=O)sc1-c1ccnc(C(C)(C)C(F)(F)F)c1 [Alpelisib] (partner 2 µM) gave a relative viability (HCC-78; first compound 0.005 µM) of 0.41, a relative viability (HCC-78; first compound 0.01581 µM) of 0.298 and a relative viability (HCC-78; first compound 0.05 µM) of 0.281. For the same molecule, the relative viability (HCC-78; first compound 0.1581 µM) was 0.185, the relative viability (HCC-78; first compound 0.5 µM) was 0.202 and the relative viability (NCI-H1666; first compound 0.005 µM) was 0.751. The relative viability (NCI-H1666; first compound 0.01581 µM) was 0.855, the relative viability (NCI-H1666; first compound 0.05 µM) was 0.647 and the relative viability (NCI-H1666; first compound 0.1581 µM) was 0.279. The relative viability (NCI-H1666; first compound 0.5 µM) was 0.35, the relative viability (NCI-H1915; first compound 0.005 µM) was 1.04 and the relative viability (NCI-H1915; first compound 0.01581 µM) was 0.915. The relative viability (NCI-H1915; first compound 0.05 µM) was 0.851, the relative viability (NCI-H1915; first compound 0.1581 µM) was 0.493 and the relative viability (NCI-H1915; first compound 0.5 µM) was 0.394. For the same molecule, the relative viability (NCI-H2085; first compound 0.005 µM) was 0.936, the relative viability (NCI-H2085; first compound 0.01581 µM) was 0.827 and the relative viability (NCI-H2085; first compound 0.05 µM) was 0.869. The relative viability (NCI-H2085; first compound 0.1581 µM) was 0.62, the relative viability (NCI-H2085; first compound 0.5 µM) was 0.558 and the relative viability (HOP-62; first compound 0.005 µM) was 0.793. For the same molecule, the relative viability (HOP-62; first compound 0.01581 µM) was 0.394, the relative viability (HOP-62; first compound 0.05 µM) was 0.348 and the relative viability (HOP-62; first compound 0.1581 µM) was 0.0724. It also gave a relative viability (HOP-62; first compound 0.5 µM) of 0.102, a relative viability (ABC-1; first compound 0.005 µM) of 1.02 and a relative viability (ABC-1; first compound 0.01581 µM) of 1.4. It also gave a relative viability (ABC-1; first compound 0.05 µM) of 1.09, a relative viability (ABC-1; first compound 0.1581 µM) of 0.738 and a relative viability (ABC-1; first compound 0.5 µM) of 0.55. For the same molecule, the relative viability (UMC-11; first compound 0.005 µM) was 0.496, the relative viability (UMC-11; first compound 0.01581 µM) was 0.463 and the relative viability (UMC-11; first compound 0.05 µM) was 0.375. For the same molecule, the relative viability (UMC-11; first compound 0.1581 µM) was 0.192, the relative viability (UMC-11; first compound 0.5 µM) was 0.18 and the relative viability (COR-L 105; first compound 0.005 µM) was 0.86. It also gave a relative viability (COR-L 105; first compound 0.01581 µM) of 1.07, a relative viability (COR-L 105; first compound 0.05 µM) of 0.675 and a relative viability (COR-L 105; first compound 0.1581 µM) of 0.444. The relative viability (COR-L 105; first compound 0.5 µM) was 0.355, the relative viability (EPLC-272H; first compound 0.005 µM) was 0.7 and the relative viability (EPLC-272H; first compound 0.01581 µM) was 0.781. The relative viability (EPLC-272H; first compound 0.05 µM) was 0.609, the relative viability (EPLC-272H; first compound 0.1581 µM) was 0.345 and the relative viability (EPLC-272H; first compound 0.5 µM) was 0.337. For the same molecule, the relative viability (NCI-H322M; first compound 0.005 µM) was 0.68, the relative viability (NCI-H322M; first compound 0.01581 µM) was 0.607 and the relative viability (NCI-H322M; first compound 0.05 µM) was 0.529. It also gave a relative viability (NCI-H322M; first compound 0.1581 µM) of 0.283, a relative viability (NCI-H322M; first compound 0.5 µM) of 0.291 and a relative viability (NCI-H358; first compound 0.005 µM) of 0.573. For the same molecule, the relative viability (NCI-H358; first compound 0.01581 µM) was 0.516, the relative viability (NCI-H358; first compound 0.05 µM) was 0.363 and the relative viability (NCI-H358; first compound 0.1581 µM) was 0.177. For the same molecule, the relative viability (NCI-H358; first compound 0.5 µM) was 0.148, the relative viability (HCC-15; first compound 0.005 µM) was 0.832 and the relative viability (HCC-15; first compound 0.01581 µM) was 0.878. For the same molecule, the relative viability (HCC-15; first compound 0.05 µM) was 0.844, the relative viability (HCC-15; first compound 0.1581 µM) was 0.745 and the relative viability (HCC-15; first compound 0.5 µM) was 0.546. It also gave a relative viability (NCI-H3122; first compound 0.005 µM) of 0.673, a relative viability (NCI-H3122; first compound 0.01581 µM) of 0.699 and a relative viability (NCI-H3122; first compound 0.05 µM) of 0.772. The relative viability (NCI-H3122; first compound 0.1581 µM) was 0.464, the relative viability (NCI-H3122; first compound 0.5 µM) was 0.424 and the relative viability (LXF-289; first compound 0.005 µM) was 1.02. It also gave a relative viability (LXF-289; first compound 0.01581 µM) of 1.05, a relative viability (LXF-289; first compound 0.05 µM) of 0.764 and a relative viability (LXF-289; first compound 0.1581 µM) of 0.356. For the same molecule, the relative viability (LXF-289; first compound 0.5 µM) was 0.268, the relative viability (CAL-12T; first compound 0.005 µM) was 1.25 and the relative viability (CAL-12T; first compound 0.01581 µM) was 1.44. For the same molecule, the relative viability (CAL-12T; first compound 0.05 µM) was 1.1, the relative viability (CAL-12T; first compound 0.1581 µM) was 0.514 and the relative viability (CAL-12T; first compound 0.5 µM) was 0.201. The relative viability (NCI-H1975; first compound 0.005 µM) was 0.442, the relative viability (NCI-H1975; first compound 0.01581 µM) was 0.761 and the relative viability (NCI-H1975; first compound 0.05 µM) was 0.801. It also gave a relative viability (NCI-H1975; first compound 0.1581 µM) of 0.418, a relative viability (NCI-H1975; first compound 0.5 µM) of 0.313 and a relative viability (NCI-H2126; first compound 0.005 µM) of 0.765. It also gave a relative viability (NCI-H2126; first compound 0.01581 µM) of 0.597, a relative viability (NCI-H2126; first compound 0.05 µM) of 0.694 and a relative viability (NCI-H2126; first compound 0.1581 µM) of 0.564. It also gave a relative viability (NCI-H2126; first compound 0.5 µM) of 0.408, a relative viability (NCI-H2023; first compound 0.005 µM) of 0.489 and a relative viability (NCI-H2023; first compound 0.01581 µM) of 0.391. It also gave a relative viability (NCI-H2023; first compound 0.05 µM) of 0.182, a relative viability (NCI-H2023; first compound 0.1581 µM) of 0.117 and a relative viability (NCI-H2023; first compound 0.5 µM) of 0.0764. The relative viability (NCI-H1755; first compound 0.005 µM) was 0.925, the relative viability (NCI-H1755; first compound 0.01581 µM) was 0.878 and the relative viability (NCI-H1755; first compound 0.05 µM) was 0.75. For the same molecule, the relative viability (NCI-H1755; first compound 0.1581 µM) was 0.244, the relative viability (NCI-H1755; first compound 0.5 µM) was 0.273 and the relative viability (EMC-BAC-2; first compound 0.005 µM) was 0.64. For the same molecule, the relative viability (EMC-BAC-2; first compound 0.01581 µM) was 0.658, the relative viability (EMC-BAC-2; first compound 0.05 µM) was 0.598 and the relative viability (EMC-BAC-2; first compound 0.1581 µM) was 0.193. For the same molecule, the relative viability (EMC-BAC-2; first compound 0.5 µM) was 0.182, the relative viability (NCI-H441; first compound 0.005 µM) was 0.542 and the relative viability (NCI-H441; first compound 0.01581 µM) was 0.49. It also gave a relative viability (NCI-H441; first compound 0.05 µM) of 0.391 and a relative viability (NCI-H441; first compound 0.5 µM) of 0.165.
